Laboratory results taken from article doi:10.1101/2020.07.07.192294v1 (biorxiv, 2020).
Like-named read-outs stand apart in the source and are kept apart here.

Assays:
CYP124 = target: T1, CYP124 (Mycobacterium tuberculosis, UniProt P9WPP3); test: biochemical
T1 sequence (P9WPP3 1-428): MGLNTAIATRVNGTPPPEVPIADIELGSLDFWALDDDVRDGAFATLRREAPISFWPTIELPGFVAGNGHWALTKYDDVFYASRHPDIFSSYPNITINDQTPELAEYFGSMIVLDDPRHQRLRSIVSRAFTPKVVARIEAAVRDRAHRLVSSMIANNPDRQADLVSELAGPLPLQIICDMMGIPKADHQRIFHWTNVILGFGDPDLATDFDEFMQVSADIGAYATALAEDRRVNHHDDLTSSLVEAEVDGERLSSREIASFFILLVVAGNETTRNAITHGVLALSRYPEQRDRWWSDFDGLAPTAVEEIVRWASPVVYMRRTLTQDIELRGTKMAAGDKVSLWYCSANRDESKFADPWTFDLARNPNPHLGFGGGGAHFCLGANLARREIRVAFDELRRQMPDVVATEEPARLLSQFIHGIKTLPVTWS

CYP142 (Rv3518c) [1] = target: T2, CYP142 (Rv3518c) (Mycobacterium tuberculosis, UniProt P9WPL5); test: biochemical
CYP125 = target: T3, CYP125 (Mycobacterium tuberculosis, UniProt P9WPP1); test: biochemical
T3 sequence (P9WPP1 1-433): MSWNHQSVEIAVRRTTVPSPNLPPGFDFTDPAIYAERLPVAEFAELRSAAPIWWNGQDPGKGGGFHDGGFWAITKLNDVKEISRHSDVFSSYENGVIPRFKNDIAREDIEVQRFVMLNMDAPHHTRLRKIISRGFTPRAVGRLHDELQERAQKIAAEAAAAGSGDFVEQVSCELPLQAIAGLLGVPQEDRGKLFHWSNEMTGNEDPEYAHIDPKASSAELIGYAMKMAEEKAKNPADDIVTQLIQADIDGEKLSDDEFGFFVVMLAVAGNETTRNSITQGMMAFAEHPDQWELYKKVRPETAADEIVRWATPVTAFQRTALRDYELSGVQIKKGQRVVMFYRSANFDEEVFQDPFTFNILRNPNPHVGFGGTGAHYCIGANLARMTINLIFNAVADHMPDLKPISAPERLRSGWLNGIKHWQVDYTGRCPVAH

CYP142 (Rv3518c) [2] = target: T4, CYP142 (Rv3518c) (Mycobacterium tuberculosis, UniProt P9WPL5); test: biochemical; format: binding
T4 sequence (P9WPL5 1-398): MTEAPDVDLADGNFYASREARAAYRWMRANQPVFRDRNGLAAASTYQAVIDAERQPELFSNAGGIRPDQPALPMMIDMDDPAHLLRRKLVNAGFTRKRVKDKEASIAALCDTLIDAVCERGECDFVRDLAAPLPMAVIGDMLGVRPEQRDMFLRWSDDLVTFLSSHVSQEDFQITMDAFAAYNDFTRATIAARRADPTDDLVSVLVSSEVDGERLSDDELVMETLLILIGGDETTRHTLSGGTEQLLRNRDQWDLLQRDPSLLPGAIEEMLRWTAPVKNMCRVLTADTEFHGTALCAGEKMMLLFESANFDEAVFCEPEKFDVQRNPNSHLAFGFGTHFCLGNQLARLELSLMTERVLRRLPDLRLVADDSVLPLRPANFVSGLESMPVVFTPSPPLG

CYP142 (Rv3518c) [3] = target: T2, CYP142 (Rv3518c); conditions: read-out: Kdapp ± SE (μM) / CYP142; binder

SMILES	Kd (CYP124) [µM]	Kd (CYP142 (Rv3518c) [1]) [µM]	Kd (CYP125) [µM]	Kd (CYP142 (Rv3518c) [2]) [µM]	Kd (CYP124; read-out: Kdapp ± SE (μM) / CYP124, binder) [µM]	Kd (CYP125; read-out: Kdapp ± SE (μM) / CYP125, binder) [µM]	Kd (CYP142 (Rv3518c) [3]) [µM]
CC(C)CCC[C@@H](C)[C@H]1CC[C@H]2[C@@H]3C(=O)C=C4C[C@@H](O)CC[C@]4(C)[C@H]3CC[C@]12C [7ketoC]	6.5 ± 0.8	4.3 ± 0.8	12.4 ± 1.7				
CCOC(=O)CCCCCCn1ccnc1 [CHImi]	1.45 ± 0.08		31 ± 4	3.73 ± 0.19			
CC(C)CCC[C@@H](C)[C@H]1CC[C@H]2[C@@H]3[C@@H](O)CC4=CC(=O)CC[C@]4(C)[C@H]3CC[C@]12C [7βOHC-one]					13.2 ± 1.7	26 ± 3	27 ± 8
CC(C)CCC[C@@H](C)[C@H]1CC[C@H]2[C@@H]3CCC4=CC(=O)CC[C@]4(C)[C@H]3CC[C@]12C [Cholestenone]	3.4 ± 0.6		10.8 ± 1.8				
CC(C)CCC[C@@H](C)[C@H]1CC[C@H]2[C@@H]3[C@@H](O)C=C4C[C@@H](O)CC[C@]4(C)[C@H]3CC[C@]12C [7βOHC]	11.1 ± 1.3	6 ± 1.4	13 ± 2				
O=C(O)CCCCCCCn1ccnc1 [ChpImi]	3.1 ± 0.5		1.61 ± 0.03	31 ± 3			
Cc1cc(CCC(C)C)ccc1NC=NO [cpd5', N′-hydroxy-N-(4-isopentyl-2-methylphenyl)formimidamide]	1.93 ± 0.16		16 ± 5	0.17 ± 0.06			
